From patent US11957766B2, “HNQO1-activatable fluorescent probe for imaging cancer cells in-vitro and in-vivo” (Texas Tech University System, priority 2019, dated 2024) come the findings set out here.

The structures appear in SMILES notation. “And” between values parts separate entries of the source, which are not always exact repeats. Equal values may be shown once.

In data set [1] the test system is IMR90, HUVEC cells. The experiment in a line: Fluorescence microscopy of NIR-ASM in NQO1 non-expressing normal cells. It counts as cell-based, human. The note with it: 10 μM, 60 min. The method, then: Detection of NQO1 in live cells. Inspired by the excellent biocompatibility, the inventors investigated its performance in both NQO1 expressing cancer cells (A549, H460) and NQO1 non-expressing normal cells (IMR90, HUVEC). All cells were incubated with NIR-ASM (10 μM) for 60 min, washed with PBS and were imaged under a confocal microscope after counterstaining the nuclei with Hoechst 33342 (FIG. 12A). […] The higher expression of NQO1 protein in A549 and H460 cells and its absence in normal cells, IMR90 and HUVEC as found with western blot analysis correlated with the probe reactivity in cells (FIG. 12B). […] Cell sorting using flow cytometry is a well-established technology in clinical diagnostics and biomedical research. To assess the applicability of the NIR-ASM to rapidly detect and quantify in both cancer and normal cells based on NQO1 expression, the probe was incubated with cell suspensions for 60 min, and about 1×10^4 cells were analyzed on a flow cytometer.
Fluorescence imaging. Both cancer and normal cells were seeded into 6-well plates and cultured overnight in respective media at 37° C. Cells were treated with 10 μM NIR-ASM and incubated at 37° C. for 60 min. They were then treated with nuclear stain Hoechst 33342 for 5 min. Finally, the medium was replaced with PBS and the live cells were imaged using a multiphoton confocal fluorescence microscope (λex/em=488/644 nm). […]

The target in data set [2] is T1, NQO1 (Homo sapiens, UniProt P15559). The experiment in a line: Kinetics of NQO1 towards NIR-ASM (Michaelis-Menten). Set-up: purchased Sigma-Aldrich D1515. The data set is classed as biochemical. The note with it: NQO1 2 μg/mL, NADH 100 μM. The method, then:
Next, the kinetics of fluorescent product formation was assessed. […] From this experiment, the initial rate of ASM formation, V (μmol min^−1 μg NQO1^−1), was calculated and then plotted as a function of NIR-ASM concentration (FIG. 10C).
Kinetic studies. Kinetic studies were performed using a microplate reader under philological conditions (PBS with 0.1% of BSA at 37° C.). The assay buffer contained 2 μg/mL of NQO1, 100 μM NADH and different concentrations of NIR-ASM (0-100 μM) in a total volume of 100 μL. Time-dependent fluorescence measurements were carried out to monitor the release of ASM by NQO1 activation of NIR-ASM (λex/em 460/646), and the data were collected every minute for 90 minutes. This assay was repeated two times in triplicate and the fluorescence readings were optimized to a standard curve of ASM of known concentration and calculated the velocity in terms of μmol^−1 min^−1 μg NQO1. A plot of the velocities and NIR-ASM concentration was used to obtaining the apparent kinetic parameters Km and Vmax from nonlinear regression analysis and Michaelis-Menton constant using the GraphPad Prism.

The target in data set [3] is T1, NQO1. The experiment in a line: Spectroscopic response of NQ-DCP to hNQO1. The data set is classed as biochemical. The method, then: Spectroscopic Response of NQ-DCP to hNQO1. The spectroscopic response of the NQ-DCP probe to an hNQO1 enzyme in the presence of NADH was evaluated in a physiologically relevant buffer (0.1% BSA and 100 μM NADH containing PBS) to determine its ability to detect hNQO1. The absorption and fluorescence spectra of NQ-DCP in the absence and presence of hNQO1 are shown in FIGS. 2A and B. In the presence of hNQO1, although there was a distinct color change from yellow to red there was no difference found in the absorption maximum (425 nm) of NQ-DCP ([…]). Further, the reaction of NQ-DCP probe with hNQO1 produced a huge fluorescence enhancement at 565 nm with a large Stokes shift (140 nm) (FIG. 2B), which is favorable for sensitive detection and bioimaging analysis, because of a non-overlapping fluorescence emission. […] The inventors measured the fluorescence spectra of NQ-DCP (10 μm) following incubation with different concentrations of hNQO1 (0.12, 0.25, 0.5, 1.0, 1.5, 2.0, and 2.5 μg/mL (0.0038, 0.008, 0.016, 0.032, 0.048, 0.064, 0.08 μmol)) along with 100 μM NADH at pH 7.4 for 30 min. […] On incubation with hNQO1, the fluorescence intensity at 565 nm increased progressively with the NQO1 concentration and reached a maximum when the hNQO1 concentration was 2.5 μg/mL. The fluorescence intensity at 565 nm was linear with hNQO1 concentration, 0.25-2.0 μg/mL (FIG. 2D). The hNQO1 detection limit (LOD) of NQ-DCP was calculated to be as low as 0.095 μg/mL, based on the standard deviation of the response (Sy) and the slope of the calibration curve (S) according to the formula: LOD=3.3(Sy/S).
Spectroscopic Methods. For absorption and fluorescence measurements, all samples were first dissolved in 100% DMSO to obtain 10 mM stock solutions and then diluted to desired concentrations in PBS buffer containing 0.1% BSA for measurement. All spectroscopic measurements were performed under physiological conditions (pH 7.4 at room temperature. hNQO1 specific NQ-DCP activation was performed under philological conditions (PBS with 0.1% of BSA at 37° C.) in the presence of 100 μM NADH for 30 min. Time-dependent fluorescent intensity changes for different concentrations of […] in the presence of NQO1 (2.0 μg/mL) and 100 μM NADH were measured using Hitachi F-2500 Fluorescence spectrophotometer (λex=420 nm and λem=565 nm).

T1 sequence (P15559 whole entry): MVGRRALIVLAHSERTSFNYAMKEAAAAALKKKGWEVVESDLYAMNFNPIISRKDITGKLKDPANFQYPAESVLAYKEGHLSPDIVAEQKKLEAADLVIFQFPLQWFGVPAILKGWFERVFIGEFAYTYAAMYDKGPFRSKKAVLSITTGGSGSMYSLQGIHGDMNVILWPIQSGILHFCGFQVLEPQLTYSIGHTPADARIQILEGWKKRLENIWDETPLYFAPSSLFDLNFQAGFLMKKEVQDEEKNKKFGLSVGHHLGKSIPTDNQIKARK

Consider `CC1=C(C)C(=O)C(C(C)(C)CC(=O)Nc2ccc(/C=C/C3=CC(=C(C#N)C#N)CC(C)(C)C3)cc2)=C(C)C1=O` [NIR-ASM, (E)-N-(4-(2-(3-(dicyanomethylene)-5,5-dimethylcyclohex-1-en-1-yl)vinyl)phenyl)-3-methyl-3-(2,4,5-trimethyl-3,6-dioxocyclohexa-1,4-dien-1-yl)butanamide], for which, in data set [1], the “fluorescence signal in normal cells” value is “did not show any fluorescence”. Besides, in data set [2], the “maximum velocity (Vmax)” value turned out to be 0.00419±0.00003 μmol min^−1 mg NQO1^−1.

As for `CC1=C(C)C(=O)C(C(C)(C)CC(=O)Oc2ccc(/C=C/C3=CC(=C(C#N)C#N)CC(C)(C)C3)cc2)=C(C)C1=O` [NQ-DCP], in data set [3], the Stokes-Shift worked out at 145 and the λabs/em was 420/465. Also, the “hNQO1 concentration range in which fluorescence intensity at 565 nm was linear” value in data set [3] (10 μM probe, 100 μM NADH, 30 min) lay in the range of 0.25 to 2.0 µg/mL. Moreover, the “hNQO1 detection limit (LOD)” value in data set [3] (10 μM probe, 100 μM NADH, pH 7.4, 30 min, LOD=3.3(Sy/S)) was 0.095 µg/mL. Also, the “stability in the absence of hNQO1” value in data set [3] (PBS with 0.1% BSA, 100 μM NADH, pH 7.4, 30 min, no hNQO1) is “highly stable”. For the same molecule, in data set [3] (after reaction with hNQO1), the Stokes shift is 145 nm and 140 nm; the “fluorescence enhancement (emission wavelength)” value is 565 nm. Also, the absorption maximum in data set [3] (no difference in the presence of hNQO1) turned out to be 425 nm.
